Molecular target: T1, ERα protein (HiBiT-tagged) in ESR1_HiBiT KI MCF7 cells (Homo sapiens, UniProt P03372)
T1 sequence (P03372 1-595): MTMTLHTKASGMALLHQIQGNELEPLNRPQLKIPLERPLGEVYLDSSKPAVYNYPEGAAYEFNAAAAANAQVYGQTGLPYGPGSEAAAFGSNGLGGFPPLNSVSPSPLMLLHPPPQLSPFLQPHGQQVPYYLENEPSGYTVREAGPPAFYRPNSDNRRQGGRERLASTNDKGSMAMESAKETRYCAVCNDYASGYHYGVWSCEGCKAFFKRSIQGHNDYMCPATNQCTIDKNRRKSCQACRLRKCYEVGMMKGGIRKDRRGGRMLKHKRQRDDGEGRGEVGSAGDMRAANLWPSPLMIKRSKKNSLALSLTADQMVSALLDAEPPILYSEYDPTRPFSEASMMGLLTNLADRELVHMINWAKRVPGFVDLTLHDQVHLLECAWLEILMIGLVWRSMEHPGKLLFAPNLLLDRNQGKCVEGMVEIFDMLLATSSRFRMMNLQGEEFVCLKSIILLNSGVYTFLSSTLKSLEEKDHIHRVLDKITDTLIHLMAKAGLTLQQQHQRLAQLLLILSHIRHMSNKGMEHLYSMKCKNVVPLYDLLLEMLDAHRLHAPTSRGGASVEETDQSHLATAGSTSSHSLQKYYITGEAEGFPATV
Assay: Nano Glo HiBiT Lytic Degradation Assay
Assay type: cell-based
Settings: 6 hours with compound, 14-point dose response 1:3, bell-shape curve fit, half-maximal effect of first Hill model, read-out: MCF7 ESR1 HiBiT - (DC50)
Summary of the method: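 ESR1_HiBiT knock-in MCF7 cells were seeded 24 h before treatment, then exposed to compounds for 6 h at 37° C (14-point 1:3 curves, 10 mM top stock, 0.1% DMSO final, duplicates). HiBiT-ERα was read by lytic LgBiT luminescence, background-subtracted and normalized to DMSO. DC50 was taken from the half-maximal point of the first Hill component of a bell-shaped fit.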

Row | DC50 | Structure (SMILES)
1 | 11 nM | COc1cc(N2CCC(CN3CCN(c4ccc5c(c4)CN([C@H]4CCC(=O)NC4=O)C5=O)CC3)CC2)ccc1[C@H]1c2ccc(O)cc2CC[C@H]1C1CCCCC1 [Compound I-151, (S)-3-(5-(4-((1-(4-((1R,2S)-2-cyclohexyl-6-hydroxy-1,2,3,4-tetrahydronaphthalen-1-yl)-3-methoxyphenyl)piperidin-4-yl)methyl)piperazin-1-yl)-1-oxoisoindolin-2-yl)piperidine-2,6-dione]
2 | 13 nM | CC(C)[C@@H]1CC(F)(F)c2cc(O)ccc2[C@@H]1c1ccc(N2CCC(CN3CCN(c4ccc5c(c4)CN([C@H]4CCC(=O)NC4=O)C5=O)CC3)CC2)cc1 [Compound I-153, (S)-3-(5-(4-((1-(4-((1S,2S)-4,4-difluoro-6-hydroxy-2-isopropyl-1,2,3,4-tetrahydronaphthalen-1-yl)phenyl)piperidin-4-yl)methyl)piperazin-1-yl)-1-oxoisoindolin-2-yl)piperidine-2,6-dione]
3 | 0.86 nM | O=C1CC[C@H](N2Cc3cc(N4CCN(CC5CCN(c6ccc([C@@H]7c8ccc(O)cc8CC[C@@H]7CC(F)(F)F)cc6)CC5)CC4)ccc3C2=O)C(=O)N1 [Compound I-157, (3S)-3-[5-[4-[[1-[4-[(1R,2R)-6-hydroxy-2-(2,2,2-trifluoroethyl)tetralin-1-yl]phenyl]-4-piperidyl]methyl]piperazin-1-yl]-1-oxo-isoindolin-2-yl]piperidine-2,6-dione]
4 | 1.3 nM | O=C1CCC(c2ccc(N3CCC4(CCN(CC5CCN(c6ccc([C@@H]7c8ccc(O)cc8CC[C@@H]7c7ccccc7)cc6)CC5)CC4)CC3)cc2)C(=O)N1 (stereo partly drawn) [Compound I-180, 3-[4-[9-[[1-[4-[(1R,2S)-6-hydroxy-2-phenyl-tetralin-1-yl]phenyl]-4-piperidyl]methyl]-3,9-diazaspiro[5.5]undecan-3-yl]phenyl]piperidine-2,6-dione]
5 | 2 nM | O=C1CCC(c2ccc(C3CC4(C3)CN(CC3CCN(c5ccc([C@@H]6c7ccc(O)cc7CC[C@@H]6c6ccccc6)cc5)CC3)C4)cc2)C(=O)N1 (stereo partly drawn) [Compound I-182, 3-(4-(2-((1-(4-((1R,2S)-6-hydroxy-2-phenyl-1,2,3,4-tetrahydronaphthalen-1-yl)phenyl)piperidin-4-yl)methyl)-2-azaspiro[3.3]heptan-6-yl)phenyl)piperidine-2,6-dione]
6 | ≥ 10000 nM | O=C1CCC(c2cccc(N3CCC4(CCN(CC5CCN(c6ccc([C@@H]7c8ccc(O)cc8CC[C@@H]7c7ccccc7)cc6)CC5)CC4)CC3)c2)C(=O)N1 (stereo partly drawn) [Compound I-183, 3-(3-(9-((1-(4-((1R,2S)-6-hydroxy-2-phenyl-1,2,3,4-tetrahydronaphthalen-1-yl)phenyl)piperidin-4-yl)methyl)-3,9-diazaspiro[5.5]undecan-3-yl)phenyl)piperidine-2,6-dione]

The next lines start with the molecule.

Row | Structure (SMILES) | DC50
7 | C[C@@]1(c2ccccc2)CCc2cc(O)ccc2[C@@H]1c1ccc(N2CCC(CN3CCN(c4ccc5c(c4)CN([C@H]4CCC(=O)NC4=O)C5=O)CC3)CC2)cc1 [Compound I-148, (S)-3-(5-(4-((1-(4-((1R,2R)-6-hydroxy-2-methyl-2-phenyl-1,2,3,4-tetrahydronaphthalen-1-yl)phenyl)piperidin-4-yl)methyl)piperazin-1-yl)-1-oxoisoindolin-2-yl)piperidine-2,6-dione] | 424 nM
8 | O=C1CC[C@H](N2Cc3cc(N4CCN(CC5CCN(c6ccc([C@@H]7c8ccc(O)cc8CC[C@@H]7C7CCCCC7)nc6)CC5)CC4)ccc3C2=O)C(=O)N1 [Compound I-149, (S)-3-(5-(4-((1-(6-((1S,2R)-2-cyclohexyl-6-hydroxy-1,2,3,4-tetrahydronaphthalen-1-yl)pyridin-3-yl)piperidin-4-yl)methyl)piperazin-1-yl)-1-oxoisoindolin-2-yl)piperidine-2,6-dione] | 0.82 nM
9 | O=C1CC[C@H](N2Cc3cc(N4CCN(CC5CCN(c6ccc([C@H]7c8ccc(O)cc8CC[C@H]7C7CCCCC7)nc6)CC5)CC4)ccc3C2=O)C(=O)N1 [Compound I-150, (S)-3-(5-(4-((1-(6-((1R,2S)-2-cyclohexyl-6-hydroxy-1,2,3,4-tetrahydronaphthalen-1-yl)pyridin-3-yl)piperidin-4-yl)methyl)piperazin-1-yl)-1-oxoisoindolin-2-yl)piperidine-2,6-dione] | ≥ 10000 nM
10 | COc1cc(N2CCC(CN3CCN(c4ccc5c(c4)CN([C@H]4CCC(=O)NC4=O)C5=O)CC3)CC2)ccc1[C@@H]1c2ccc(O)cc2CC[C@@H]1C1CCCCC1 [Compound I-152, (S)-3-(5-(4-((1-(4-((1S,2R)-2-cyclohexyl-6-hydroxy-1,2,3,4-tetrahydronaphthalen-1-yl)-3-methoxyphenyl)piperidin-4-yl)methyl)piperazin-1-yl)-1-oxoisoindolin-2-yl)piperidine-2,6-dione] | 1.43 nM
11 | CC(C)[C@H]1CC(F)(F)c2cc(O)ccc2[C@H]1c1ccc(N2CCC(CN3CCN(c4ccc5c(c4)CN([C@H]4CCC(=O)NC4=O)C5=O)CC3)CC2)cc1 [Compound I-156, (S)-3-(5-(4-((1-(4-((1R,2R)-4,4-difluoro-6-hydroxy-2-isopropyl-1,2,3,4-tetrahydronaphthalen-1-yl)phenyl)piperidin-4-yl)methyl)piperazin-1-yl)-1-oxoisoindolin-2-yl)piperidine-2,6-dione] | 0.4 nM
12 | O=C1CC[C@H](N2Cc3cc(N4CCN(CC5CCN(c6ccc([C@@H]7c8ccc(O)cc8CC[C@@H]7C78CC9CC(CC(C9)C7)C8)cc6)CC5)CC4)ccc3C2=O)C(=O)N1 [Compound I-161, (S)-3-(5-(4-((1-(4-((1R,2S)-2-((3R,5R,7R)-adamantan-1-yl)-6-hydroxy-1,2,3,4-tetrahydronaphthalen-1-yl)phenyl)piperidin-4-yl)methyl)piperazin-1-yl)-1-oxoisoindolin-2-yl)piperidine-2,6-dione] | 8 nM
13 | O=C1CC[C@H](N2Cc3cc(N4CCN(CC5CCN(c6ccc([C@@H]7c8ccc(O)cc8CC[C@@H]7C7CCCCC7)cc6F)CC5)CC4)ccc3C2=O)C(=O)N1 [Compound I-162, (S)-3-(5-(4-((1-(4-((1R,2R)-2-cyclohexyl-6-hydroxy-1,2,3,4-tetrahydronaphthalen-1-yl)-2-fluorophenyl)piperidin-4-yl)methyl)piperazin-1-yl)-1-oxoisoindolin-2-yl)piperidine-2,6-dione] | 3 nM
14 | C[C@H]1Cc2cc(O)ccc2[C@@H](c2ccc(N3CCC(CN4CCN(c5ccc6c(c5)CN([C@H]5CCC(=O)NC5=O)C6=O)CC4)CC3)cc2)[C@H]1c1ccccc1 [Compound I-174, (S)-3-(5-(4-((1-(4-((1R,2S,3S)-6-hydroxy-3-methyl-2-phenyl-1,2,3,4-tetrahydronaphthalen-1-yl)phenyl)piperidin-4-yl)methyl)piperazin-1-yl)-1-oxoisoindolin-2-yl)piperidine-2,6-dione] | 18 nM
15 | C[C@@H]1Cc2cc(O)ccc2[C@@H](c2ccc(N3CCC(CN4CCN(c5ccc6c(c5)CN([C@H]5CCC(=O)NC5=O)C6=O)CC4)CC3)cc2)[C@H]1c1ccccc1 [Compound I-175, (S)-3-(5-(4-((1-(4-((1R,2S,3R)-6-hydroxy-3-methyl-2-phenyl-1,2,3,4-tetrahydronaphthalen-1-yl)phenyl)piperidin-4-yl)methyl)piperazin-1-yl)-1-oxoisoindolin-2-yl)piperidine-2,6-dione] | 0.77 nM
16 | O=C1CCC(c2ccc(N3CC[C@@H]4[C@H]3CCN4CC3CCN(c4ccc([C@@H]5c6ccc(O)cc6CC[C@@H]5c5ccccc5)cc4)CC3)cc2)C(=O)N1 (stereo partly drawn) [Compound I-176, 3-(4-((3aR,6aR)-4-((1-(4-((1R,2S)-6-hydroxy-2-phenyl-1,2,3,4-tetrahydronaphthalen-1-yl)phenyl)piperidin-4-yl)methyl)hexahydropyrrolo[3,2-b]pyrrol-1 (2H)-yl)phenyl)piperidine-2,6-dione] | 3300 nM
17 | O=C1CCC(c2ccc(N3CC[C@H]4[C@@H]3CCN4CC3CCN(c4ccc([C@@H]5c6ccc(O)cc6CC[C@@H]5c5ccccc5)cc4)CC3)cc2)C(=O)N1 (stereo partly drawn) [Compound I-177, 3-(4-((3aS,6aS)-4-((1-(4-((1R,2S)-6-hydroxy-2-phenyl-1,2,3,4-tetrahydronaphthalen-1-yl)phenyl)piperidin-4-yl)methyl)hexahydropyrrolo[3,2-b]pyrrol-1 (2H)-yl)phenyl)piperidine-2,6-dione] | ≥ 10000 nM
18 | O=C1CCC(c2cccc(N3CC[C@H]4[C@@H]3CCN4CC3CCN(c4ccc([C@@H]5c6ccc(O)cc6CC[C@@H]5c5ccccc5)cc4)CC3)c2)C(=O)N1 (stereo partly drawn) [Compound I-179, 3-(3-((3aS,6aS)-4-((1-(4-((1R,2S)-6-hydroxy-2-phenyl-1,2,3,4-tetrahydronaphthalen-1-yl)phenyl)piperidin-4-yl)methyl)hexahydropyrrolo[3,2-b]pyrrol-1 (2H)-yl)phenyl)piperidine-2,6-dione] | 34 nM
19 | Cn1nc(C2CCC(=O)NC2=O)c2ccc(N3CCN(CC4CCN(c5ccc([C@@H]6c7ccc(O)cc7CC[C@@H]6c6ccccc6)cc5)CC4)CC3)cc21 (stereo partly drawn) [Compound I-188, 3-(6-(4-((1-(4-((1R,2S)-6-hydroxy-2-phenyl-1,2,3,4-tetrahydronaphthalen-1-yl)phenyl)piperidin-4-yl)methyl)piperazin-1-yl)-1-methyl-1H-indazol-3-yl)piperidine-2,6-dione] | 1.23 nM
